Converted amounts (≈) assume the structure as drawn. The source made the active and inactive calls. The rule behind the calls is not given here.
Key:
Trichophyton rubrum = test: Fungicidal activity against Trichophyton rubrum KCCM60450 at 8 times after 24 hrs by time-kill kinetics assay; format: functional, organism-based
[1] = tested on: Trichophyton mentagrophytes; test: Fungicidal activity against Trichophyton mentagrophytes KCCM60449 at 8 times after 24 hrs by time-kill kinetics assay; format: functional, organism-based
Cryptococcus neoformans = test: Antifungal activity against Cryptococcus neoformans H99 assessed as reduction in fungal growth incubated for 72 hrs by CLSI based broth microdilution method; format: functional
Candida albicans = test: Antifungal activity against Candida albicans ATCC SC5314 assessed as reduction in fungal growth incubated for 48 hrs by CLSI based broth microdilution method; format: functional
Nakaseomyces glabratus = test: Antifungal activity against Candida glabrata BG2 assessed as reduction in fungal growth incubated for 48 hrs by CLSI based broth microdilution method; format: functional
Aspergillus fumigatus = test: Antifungal activity against Aspergillus fumigatus AF293 assessed as reduction in fungal growth incubated for 48 hrs by CLSI based broth microdilution method; format: functional
[2] = Stability in human liver microsomes assessed as parent compound remaining after 30 mins; format: ADME, Microsome; conditions: read-out: Stability
[3] = Stability in rat liver microsomes assessed as parent compound remaining after 30 mins; format: ADME, Microsome; conditions: microsomes, 0.5 h
[4] = Stability in mouse liver microsomes assessed as parent compound remaining after 30 mins; format: ADME, Microsome; conditions: microsomes, 0.5 h
Cytochrome P450 2C9 = Cytochrome P450 2C9 (Homo sapiens, UniProt P11712); test: Inhibition of CYP2C9 (unknown origin) relative to control; format: ADME
Sequence of Cytochrome P450 2C9 (P11712 whole entry): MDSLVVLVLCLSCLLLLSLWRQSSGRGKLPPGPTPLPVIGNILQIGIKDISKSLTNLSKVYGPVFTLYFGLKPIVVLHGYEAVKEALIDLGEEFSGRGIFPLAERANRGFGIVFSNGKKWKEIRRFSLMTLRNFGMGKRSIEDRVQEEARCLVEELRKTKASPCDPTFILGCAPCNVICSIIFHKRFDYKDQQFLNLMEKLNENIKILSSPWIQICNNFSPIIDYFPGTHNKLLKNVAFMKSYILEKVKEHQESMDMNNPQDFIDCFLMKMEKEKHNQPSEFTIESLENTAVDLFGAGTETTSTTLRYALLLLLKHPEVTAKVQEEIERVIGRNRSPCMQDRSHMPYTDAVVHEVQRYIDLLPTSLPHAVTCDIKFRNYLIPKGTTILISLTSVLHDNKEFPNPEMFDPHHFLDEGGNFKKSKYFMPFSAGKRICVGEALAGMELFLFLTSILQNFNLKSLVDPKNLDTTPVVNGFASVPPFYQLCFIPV

Cytochrome P450 3A4 = Cytochrome P450 3A4 (Homo sapiens, UniProt P08684); test: Inhibition of CYP3A4 (unknown origin) relative to control; format: ADME
Sequence of Cytochrome P450 3A4 (P08684 whole entry): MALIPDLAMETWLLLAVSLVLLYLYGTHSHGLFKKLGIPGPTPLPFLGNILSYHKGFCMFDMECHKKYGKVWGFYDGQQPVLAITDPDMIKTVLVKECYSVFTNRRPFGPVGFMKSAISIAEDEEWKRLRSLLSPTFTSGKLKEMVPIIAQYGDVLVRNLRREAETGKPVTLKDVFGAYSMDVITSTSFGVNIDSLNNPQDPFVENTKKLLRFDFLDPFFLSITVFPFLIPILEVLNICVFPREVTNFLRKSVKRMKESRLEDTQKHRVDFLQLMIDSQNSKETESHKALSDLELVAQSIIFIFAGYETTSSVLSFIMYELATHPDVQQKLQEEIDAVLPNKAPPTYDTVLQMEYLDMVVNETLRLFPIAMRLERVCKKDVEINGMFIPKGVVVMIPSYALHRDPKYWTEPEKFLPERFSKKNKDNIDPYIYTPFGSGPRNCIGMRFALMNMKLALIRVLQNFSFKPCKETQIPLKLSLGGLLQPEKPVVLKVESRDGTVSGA

Structure (SMILES)	Activity (Trichophyton rubrum)	Activity [1]	MIC (Cryptococcus neoformans) [mg/L]	MIC (Candida albicans) [mg/L]	MIC (Nakaseomyces glabratus) [mg/L]	MIC (Aspergillus fumigatus) [mg/L]	remaining at 0.5 h [2] [%]	Stability [3]	Stability [4]	inhibition (INH) (Cytochrome P450 2C9) [%]	inhibition (INH) (Cytochrome P450 3A4) [%]
CN(C/C=C/C#CC(C)(C)C)Cc1cccc2ccccc12	inactive	inactive	–	–	–	–	–	–	–	–	–
CCC(N)C(=O)NCCc1ccc(-c2ccc(F)c(F)c2)cc1.Cl (racemic)	–	–	64	32	64	64	–	–	–	–	–
CCC(NC)C(=O)NCCc1ccc(-c2ccc(C(F)(F)F)cc2)cc1.Cl (racemic)	–	–	16	32	64	64	–	–	–	–	–
CCC(N)C(=O)NCCc1ccc(-c2ccc(OC(F)(F)F)cc2)cc1.Cl (racemic)	–	–	16	16	16	32	–	–	–	–	–
CCCCC(NC)C(=O)NCCc1ccc(-c2ccc(Cl)c(Cl)c2)cc1.Cl (racemic)	–	–	4	8	8	8	> 85	Unstable	Unstable	–	–
CCCCC(NC)C(=O)NCCc1ccc(-c2ccc(OC(F)(F)F)cc2)cc1.Cl (racemic)	–	–	4	16	16	8	–	–	–	–	–
CC(NCCc1ccc(Oc2ccc(Cl)c(Cl)c2)cc1)C(N)=O.CS(=O)(=O)O (racemic)	–	–	8	32	32	32	–	–	–	–	–
CC(NCCc1ccc(-c2ccc(C(F)(F)F)cc2)cc1)C(N)=O.CS(=O)(=O)O (racemic)	–	–	32	128	64	32	–	–	–	–	–
Cl.O=C(NCCc1ccc(-c2ccc(C(F)(F)F)cc2)cc1)C1CCNC1 (racemic)	–	–	64	32	64	64	–	–	–	–	–
CCCCC(N)C(=O)NCCc1ccc(-c2ccc(OC(F)(F)F)cc2)cc1.Cl (racemic)	–	–	4	8	8	8	–	–	–	–	–
CC(NCCc1ccc(-c2ccc(Cl)c(Cl)c2)cc1)C(N)=O.CS(=O)(=O)O (racemic)	–	–	8	16	16	8	–	–	–	–	–
CCCC(N)C(=O)NCCc1ccc(Oc2ccc(Cl)c(Cl)c2)cc1.Cl (racemic)	–	–	8	16	16	16	–	–	–	–	–
CCC(N)C(=O)NCCc1ccc(-c2ccc(C(F)(F)F)cc2)cc1.Cl (racemic)	–	–	16	16	16	32	–	–	–	–	–
CCCC(N)C(=O)NCCc1ccc(Oc2ccc(C(F)(F)F)cc2)cc1.Cl (racemic)	–	–	16	32	32	32	–	–	–	–	–
CCCCC(N)C(=O)NCCc1ccc(-c2ccc(F)c(F)c2)cc1.Cl (racemic)	–	–	16	16	32	32	–	–	–	–	–
CCCCC(NC)C(=O)NCCc1ccc(-c2ccc(C(F)(F)F)cc2)cc1.Cl (racemic)	–	–	4	16	16	16	–	–	–	–	–
CCCC(N)C(=O)NCCc1ccc(-c2ccc(F)c(F)c2)cc1.Cl (racemic)	–	–	32	16	64	64	> 85	–	–	–	–
CCC(NC)C(=O)NCCc1ccc(-c2ccc(OC(F)(F)F)cc2)cc1.Cl (racemic)	–	–	16	32	32	32	–	–	–	–	–
CC(NCCc1ccc(-c2cccc(OC(F)(F)F)c2)cc1)C(N)=O.CS(=O)(=O)O (racemic)	–	–	32	> 128	64	16	–	–	–	–	–

Structure (SMILES)	Activity (Trichophyton rubrum)	Activity [1]	MIC (Cryptococcus neoformans) [mg/L]	MIC (Candida albicans) [mg/L]	MIC (Nakaseomyces glabratus) [mg/L]	MIC (Aspergillus fumigatus) [mg/L]	remaining at 0.5 h [2] [%]	Stability [3]	Stability [4]	inhibition (INH) (Cytochrome P450 2C9) [%]	inhibition (INH) (Cytochrome P450 3A4) [%]
CCCC(N)C(=O)NCCc1ccc(OCc2ccc(C(F)(F)F)cc2)cc1.Cl (racemic)	–	–	16	16	32	32	–	–	–	> 70	> 70
CN1CCCCC1C(=O)NCCc1ccc(-c2ccc(Cl)c(Cl)c2)cc1 (racemic)	–	–	8 (≈ 20.4 µM)	128 (≈ 327 µM)	16 (≈ 40.9 µM)	16 (≈ 40.9 µM)	–	–	–	–	–
CC(NCCc1ccc(Oc2ccc(C(F)(F)F)cc2)cc1)C(N)=O.CS(=O)(=O)O (racemic)	–	–	32	128	128	64	–	–	–	–	–
CCCC(NC)C(=O)NCCc1ccc(OCc2ccc(C(F)(F)F)cc2)cc1.Cl (racemic)	–	–	16	64	64	64	–	–	–	–	–
CCCC(NC)C(=O)NCCc1ccc(-c2ccc(OC(F)(F)F)cc2)cc1.Cl (racemic)	–	–	8	32	128	16	–	–	–	–	–
CN1CCCC1C(=O)NCCc1ccc(-c2ccc(Cl)c(Cl)c2)cc1 (racemic)	–	–	8 (≈ 21.2 µM)	128 (≈ 339 µM)	16 (≈ 42.4 µM)	16 (≈ 42.4 µM)	–	–	–	–	–
CCCCC(N)C(=O)NCCc1ccc(-c2ccc(C(F)(F)F)cc2)cc1.Cl (racemic)	–	–	4	8	8	8	–	–	–	–	–
CCC(NC)C(=O)NCCc1ccc(-c2ccc(Cl)c(Cl)c2)cc1.Cl (racemic)	–	–	8	16	16	16	–	–	–	–	–
CCCC(N)C(=O)NCCc1ccc(OCc2ccc(Cl)c(Cl)c2)cc1.Cl (racemic)	–	–	8	8	16	16	–	–	–	–	–
CCC(N)C(=O)NCCc1ccc(-c2ccc(Cl)c(Cl)c2)cc1.Cl (racemic)	–	–	8	8	16	16	–	–	–	–	–
CC(=O)N1CCC(C(=O)NCCc2ccc(-c3ccc(C(F)(F)F)cc3)cc2)C1 (racemic)	–	–	> 128	> 128	> 128	> 128	–	–	–	–	–
Cl.O=C(NCCc1ccc(-c2ccc(C(F)(F)F)cc2)cc1)C1CCCN1 (racemic)	–	–	16	32	32	32	–	–	–	–	–
CC(NCCc1ccc(OCc2ccc(Cl)c(Cl)c2)cc1)C(N)=O.CS(=O)(=O)O (racemic)	–	–	8	32	32	32	–	–	–	–	–
CCCC(NC)C(=O)NCCc1ccc(OCc2ccc(Cl)c(Cl)c2)cc1.Cl (racemic)	–	–	8	32	32	32	–	–	–	–	–
CC(NCCc1ccc(-c2ccc(OC(F)(F)F)cc2)cc1)C(N)=O.CS(=O)(=O)O (racemic)	–	–	16	36	> 128	> 128	–	–	–	–	–
Cl.O=C(NCCc1ccc(-c2ccc(Cl)c(Cl)c2)cc1)C1CCCCN1 (racemic)	–	–	8	16	16	16	–	–	–	–	–
CC(=O)N1CCCC1C(=O)NCCc1ccc(-c2ccc(C(F)(F)F)cc2)cc1 (racemic)	–	–	> 128	> 128	> 128	> 128	–	–	–	–	–
CCCC(N)C(=O)NCCc1ccc(-c2ccc(C(F)(F)F)cc2)cc1.Cl (racemic)	–	–	8	8	16	16	–	–	–	–	–
CCCC(N)C(=O)NCCc1ccc(-c2ccc(OC(F)(F)F)cc2)cc1.Cl (racemic)	–	–	4	8	16	16	–	–	–	–	–

From ChEMBL document CHEMBL5030558, “Optimization and Evaluation of Novel Antifungal Agents for the Treatment of Fungal Infection” (J Med Chem, 2021)
